Laboratory results reported in patent US11446300B2 (Alexion Pharmaceuticals, Inc., priority 2015, dated 2022).
Where two headings read alike, the source gives them in different places.

Key:
primary CLL cells = experiment: Primary CLL cell viability assay, PI staining, 72 hours; assay type: cell-based, human; conditions: for IC50: Homo sapiens, CLL cell, 60 CLL samples, 72 hours
Description: Isolated CLL cells were cultured in RPMI-1640 with 15% fetal bovine serum (Gibco, Grand Island, N.Y., USA), penicillin (100 IU), and streptomycin (100 μg/mL), at a density of 1×10^7 cells/mL in the presence or absence of […] CpG, 100 ng/mL CD40L, 10 ng/mL IL-4. Anti-IgM stimulation was conducted with plate-bound anti-IgM (10 μg/mL). CLL cells were stimulated with 10 ng/mL IL-6 (R&D Systems, Minneapolis, Minn.), to detect the phosphorylation of JAK1/JAK2 (Cell Signaling Technology, Danvers, Mass.) and STAT3 (Cell Signaling Technology, Danvers, Mass., USA).
Ten thousand events in a live cell gate were counted by a FACS LSR2 (BD Biosciences) and the data was normalized to the matched vehicle control for each specimen (100%). IC50 was then generated using the GraphPad Prism 6 program (San Diego, Calif., USA).

[1] = test system: primary CLL cells from patients who responded to ibrutinib; experiment: BrdU cell proliferation assay, combined stimulation; assay type: cell-based, human; conditions: 250 nM, day 8
DHL4 = experiment: DLBCL cell line viability, CellTiter Glo, ten-point curve; assay type: cell-based; conditions: read-out: IC50 of Kinase Inhibitor in Cell Titer Glo Assay

**Q.** What does the source list for `CCS(=O)(=O)N1CCN(c2ccc(Nc3ncc(C(N)=O)c(NC4CC4)n3)cc2)CC1` [Cerdulatinib, 4-(cyclopropylamino)-2-(4-(4-(ethylsulfonyl)piperazin-1-yl)phenylamino)pyrimidine-5-carboxamide]?
**A.** IC50 (primary CLL cells; read-out: IC50 range): 0.37 to 10 µM; IC50 (primary CLL cells; read-out: average IC50 for the cohort): 2.57 µM; sensitivity of CLL cells with high-risk genetic abnormalities (primary CLL cells; del (11q), trisomy 12, del (17p) versus del (13q) or none): more sensitive; sensitivity of CLL cells with unmutated IGHV versus mutated IGHV (primary CLL cells; unmutated N=33, mutated N=27, P=0.0395): more sensitive; BrdU incorporation [1]: responded equally well; IC50 (DHL4): 1.4 µM
